Experimental findings from patent US20060234919A1, “Use” (priority 2001, published 2006) are described below.

What all share (type): in vivo, rat
Experiment [1] deals with caerulein-induced pancreatitis. Description: caerulein-induced pancreatitis, pancreatic edema. The following applies: subcutaneous pre-treatment 1 mg/ml; caerulein alone 8.11±0.96, control 3.12±0.52. How it is done: Caerulein-induced pancreatitis: Female Sprague-Dawley rats (200-250 g) were anaesthetized with pentobarbitone sodium and phenobarbitone sodium (each 40 mg/kg, i.p.). The cholecystokinin analogue caerulein (8 nmol/kg in 2 h) was infused via one jugular vein for exocrine hyperstimulation and induction of acute edematous pancreatitis (Lampel M, Kern H F. Acute interstitial pancreatitis in the rat in-duced by excessive doses of a pancreatic secretagogue. Virchows Arch (Pathol Anat) 1997; 373: 97-117), while control animals were infused with a corresponding volume (4 ml/kg/h) of phosphate-buffered saline. Pre-treatment with the kininase II inhibitor captopril ([…], i. p.) was given 30 min prior to the infusion of caerulein. At the end of the experiment, the animals were sacrificed with an overdose of pentobarbital sodium. The pancreatic tissue was dried for 16 h in a vacuum centrifuge and the edema was quantified as fluid wt. per dry wt. of the tissue. For the determination of lipase activity in serum, the blood was collected following decapitation in separate groups of rats. The pancreas of these animals was excised an placed immediately into 2 ml of a 154 mmol/l solution of NaCl. After centrifugation at 2×10^5 m/s^2 for 25 min the supernatant was stored at −80° C. All samples were assayed for lipase activity (lipase test Boehringer Mannheim, Germany).

Experiment [2] concerns xylene-induced cystitis. The experiment can be described thus: xylene-induced cystitis, plasma protein extravasation (Evans blue). The following applies: 1 mg/ml s.c. 1 h before xylene; 2 h after instillation; xylene alone 13.21±3.68; p<0.01. How it is done: Rats were anaesthetised with pentobarbital sodium and phenobarbitone sodium as above. Following i. v. injection of Evans blue (20 mg/kg, i. v.), the urinary bladder was cannulated via the urethra using a polyethylene tubing and […] xylene (30% v/v in silicone oil) were instilled within 10 s. The cannula was then left in place for a further period of 10 s. Two hours later, the animals were injected with an overdose of pentobarbitone sodium and the bladder was removed. Evans blue was extracted by incubation of the tissue in 4 ml formamide for 24 h at 55° C. for subsequent photometric measurements at 620 nm.
Plasma protein extravasation in the urinary bladder of anaesthetised rats was made 2 h after intravesical instillation of 30% (v/v) xylene […]. Control animals were treated with appropriate volumes of the vehicles ([…] silicone oil or 4 ml/kg 154 mmol/l NaCl solution, respectively). Oxytocin (1 mg/ml) was injected s. c. 1 h before administration of xylene or cyclophosphamide while control rats received DMSO (0.5 ml/kg, s. c.). Plasma protein extravasation is given as total tissue content of the protein marker, Evans blue, given i. v. (20 mg/kg) 5 min prior to the induction of cystitis.
Oxytocin was dissolved and diluted in DMSO for all experiments involving s. c. injection in volumes of 1.0 ml/kg. […]

Experiment [3] has as its system magnesium deficiency-induced dermatosis. Description: atopic dermatitis-like symptoms in hypomagnesaemic hairless rats. How it is done: Male hairless rats (Ico:OFA hr/hr) were obtained from Iffa Credo (Lyon, France) immediately after weaning and housed under conventional standardised conditions in polycarbonate cages with wood chip bedding in a room with 12:12 h light/dark cycle, 24±1° C. The rats were fed with a standard maintenance diet low in magnesium (Altromin, Lage, Germany, C10350; 0.012% Mg^2+/kg dry matter) and demonised water was supplied ad libitum. This diet rendered the animals hypomagnesaemic. Magnesium (mean±SD, mmol/l) in serum fell to 0.58±0.23 on day 4, 0.36±0.18 on day 10, and to the lowest value (0.24±0.11) on day 15 on the diet. The lowest concentration was maintained up to the termination of the experiments. Under these conditions, the onset of clinical signs was after 6-8 days on the diet. The first signs were pronounced reddening and swelling of both ear lobes in all animals. […] Simultaneously with the onset of erythema, the rats began to scratch intensively and bite themselves, causing erosions and excoriations. Head, trunk, paws and tail were uniformly and intensely reddened within 2 days after the onset of signs. This stage was followed by the development of small papules and irregularly shaped plaques 1-2 cm in diameter on the trunk. The skin lesions and the signs of pruritus were most pronounced after 10-11 days on the diet, and were then constant for approximately 4 days. This acute stage was then followed by a decrease in general erythema and, subsequently, by the remission of papules and plaques within approximately 5 days. However, complete clearance was not observed.
Drug, formulations and treatment regimens: For topical administration, the oxytocin was dissolved in ethanol/propylene glycol (1 mg/ml).
The treatment was performed either unilaterally with the active drug on the right ear and with the vehicle contralaterally or bilaterally on both ears with oxytocin and vehicle, respectively. Therapeutic treatment was started immediately after clinical signs had fully developed and was given twice daily for 3 consecutive days. Prophylactic application was started on day 3 on the diet (i.e. 3-5 days before the expected onset of signs) and was given once daily for 7 days until day 9. Active drug or vehicle was applied in volumes of 20 μl to both sides of the ears.
For assessment of the therapeutic efficacy of oxytocin the animals were examined clinically once daily during the treatment period and for a further 7 days (topical treatment). Prophylactic activity was determined by daily examinations performed during the treatment period and a further 9 days. A score index (scale 0-3) for ear lesions was applied: 0, no change; 1, slight edematous, erythematous swelling; 2, moderate edematous, erythematous swelling; 3, pronounced edematous, erythematous swelling. In all experiments, the skin lesions were evaluated clinically by a single investigator unaware of the treatment allocation.

As for Oxytocin, the “water content of the pancreatic tissue (edema formation)” value in experiment [1] was determined as 5.25±0.68 g/g d. wt. Besides, the “plasma protein extravasation, total Evans blue content of the urinary bladder” value in experiment [2] worked out at 5.14 ± 2.58 mg. In addition, the “sum of daily scores (ear lesions, scale 0-3) from day 3 to 10” value in experiment [3] (prophylactic topical, once daily day 3 to 9, vehicle-treated ears 9.2±0.7) is 2.4±1.1. For the same substance, in experiment [3] (therapeutic, bilateral application, signs reappeared 4 or 5 days after the last dose), the “time after the last dose until which signs remained suppressed” value is reported as 3 days. Further, the “local erythematous swelling of the ears” value in experiment [3] (therapeutic, bilateral application, within 1 day after the first dose) is “significantly inhibited”. Besides, the “local erythematous swelling of the ear” value in experiment [3] (therapeutic, epicutaneously on one ear, 1 mg/ml, within 1 day after the start of treatment) is “significantly reduced local erythematous swelling”. For the same substance, the “systemic effect (distant erythematous lesions on the trunk and pruritus)” value in experiment [3] (topical dose applied on the ears) is recorded as “no systemic effect”.
